Each structure is given as a SMILES string.

recombinant human GCN2 protein, sequence (Q9P2K8 whole entry): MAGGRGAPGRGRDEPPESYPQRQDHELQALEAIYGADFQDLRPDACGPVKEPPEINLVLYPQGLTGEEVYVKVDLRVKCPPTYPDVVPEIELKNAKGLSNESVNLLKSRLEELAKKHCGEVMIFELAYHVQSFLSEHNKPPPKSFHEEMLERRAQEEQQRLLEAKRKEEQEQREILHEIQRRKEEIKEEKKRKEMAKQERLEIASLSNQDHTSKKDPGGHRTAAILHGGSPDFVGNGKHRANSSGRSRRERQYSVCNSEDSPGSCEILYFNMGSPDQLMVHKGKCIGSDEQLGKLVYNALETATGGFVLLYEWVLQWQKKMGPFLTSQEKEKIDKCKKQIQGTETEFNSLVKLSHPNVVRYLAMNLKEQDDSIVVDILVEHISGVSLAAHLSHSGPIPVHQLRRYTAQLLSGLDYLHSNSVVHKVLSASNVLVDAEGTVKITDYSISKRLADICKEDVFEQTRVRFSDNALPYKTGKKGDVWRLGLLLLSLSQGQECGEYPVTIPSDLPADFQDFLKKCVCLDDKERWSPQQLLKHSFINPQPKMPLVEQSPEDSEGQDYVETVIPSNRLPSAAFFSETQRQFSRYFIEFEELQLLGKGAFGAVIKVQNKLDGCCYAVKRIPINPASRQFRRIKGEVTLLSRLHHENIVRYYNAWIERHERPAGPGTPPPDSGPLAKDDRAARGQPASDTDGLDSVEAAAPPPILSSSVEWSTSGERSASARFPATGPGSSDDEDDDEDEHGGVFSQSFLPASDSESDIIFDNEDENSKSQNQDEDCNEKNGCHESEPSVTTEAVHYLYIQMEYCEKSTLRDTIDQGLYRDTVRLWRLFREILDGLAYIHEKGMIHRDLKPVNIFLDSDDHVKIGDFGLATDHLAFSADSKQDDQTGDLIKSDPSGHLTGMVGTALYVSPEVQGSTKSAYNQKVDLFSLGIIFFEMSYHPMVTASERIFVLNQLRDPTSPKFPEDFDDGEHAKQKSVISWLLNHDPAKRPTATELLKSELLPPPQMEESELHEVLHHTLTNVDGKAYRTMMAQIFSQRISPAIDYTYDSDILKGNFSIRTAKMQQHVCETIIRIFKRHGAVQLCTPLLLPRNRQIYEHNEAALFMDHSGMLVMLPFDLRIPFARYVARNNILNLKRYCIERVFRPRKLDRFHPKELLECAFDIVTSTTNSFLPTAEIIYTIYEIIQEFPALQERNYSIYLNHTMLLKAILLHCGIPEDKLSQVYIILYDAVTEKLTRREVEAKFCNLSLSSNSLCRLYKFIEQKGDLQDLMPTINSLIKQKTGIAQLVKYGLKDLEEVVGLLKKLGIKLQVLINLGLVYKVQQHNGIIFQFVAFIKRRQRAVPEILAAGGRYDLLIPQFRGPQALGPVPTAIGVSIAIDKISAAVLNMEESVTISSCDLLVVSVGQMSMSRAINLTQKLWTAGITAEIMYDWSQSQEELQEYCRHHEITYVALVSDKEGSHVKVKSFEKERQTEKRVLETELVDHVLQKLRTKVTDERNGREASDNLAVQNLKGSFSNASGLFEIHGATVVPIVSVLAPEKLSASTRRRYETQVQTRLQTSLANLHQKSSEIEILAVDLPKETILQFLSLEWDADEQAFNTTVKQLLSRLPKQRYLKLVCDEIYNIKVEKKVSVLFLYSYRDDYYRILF

In the test the target is recombinant human GCN2 protein (Homo sapiens, UniProt Q9P2K8). The experiment in a line: General control nonderepressible 2 (GCN2) inhibitory capacity, 33P-ATP filter assay. Format: biochemical. The following applies: recombinant human GCN2, 70 uM [gamma-33P-ATP], 40 minutes, room temperature. On the procedure:
<Experimental Example 2> Evaluation of General Control Nonderepressible 2 (GCN2) Inhibitory Capacity
A recombinant human GCN2 protein was mixed with the compound in a reaction solution (20 mM Tris/HCl pH8.5, 0.2 mM EDTA, 0.1% Tween, 100 mM NaCl, 300 μM RSRSRSRSRSRSRSR, 10 mM Magnesium acetate, 70 uM [gamma-33P-ATP]) and reacted at room temperature for 40 minutes. Then, the reaction was terminated by adding phosphoric acid (0.5%) to the reaction mixture, and 10 ul of the reaction solution was dropped onto a P30 filter. The filter was washed four times in a 0.425% phosphoric acid solution for 4 minutes, then washed once more in methanol, dried, and the GCN2 activity was measured by scintillation counting. […] The compound was diluted by 1/3 from the highest concentration of 1 uM and treated with a total of 9 concentrations to evaluate the degree of inhibition.
One may read the IC50 as the concentration at which inhibition is half-maximal. Turning to `Cc1ccc(Cl)cc1S(=O)(=O)Nc1ccc(F)c(-n2c(=O)c3cnc(N)nc3n(C)c2=O)c1F` [Example 52, N-(3-(7-amino-1-methyl-2,4-dioxo-1,4-dihydropyrimido[4,5-d]pyrimidin-3(2H)-yl)-2,4-difluorophenyl)-5-chloro-2-methylbenzenesulfonamide], the IC50 was below 0.1 µM.
With `COc1ncc(Cl)cc1S(=O)(=O)Nc1ccc(F)c(-n2cc(CO)c3nc(N)ncc3c2=O)c1F` [Example 23, N-(3-(2-amino-8-hydroxymethyl)-5-oxopirido[4,3-d]pyrimidin-6(5H)-2,4-difluorophenyl)-5-chloro-2-methoxypyridine-3-sulfonamide] the figure was 0.1 to 0.3 µM; with `Nc1ncc2c(n1)N(C1CC1)CN(c1c(F)ccc(NS(=O)(=O)c3cc(Cl)ccc3Cl)c1F)C2=O` [Example 59, N-(3-(7-amino-1-cyclopropyl-4-oxo-1,4-dihydropyrimido[4,5-d]pyrimidin-3(2H)-yl)-2,4-difluorophenyl)-2,5-dichlorobenzenesulfonamide], 0.1 to 0.3 µM.
Take `Nc1ncc2c(n1)N(C1CC1)CN(c1c(F)ccc(NS(=O)(=O)c3cccc4ccccc34)c1F)C2=O` [Example 61, N-(3-(7-amino-1-cyclopropyl-4-oxo-1,4-dihydropyrimido[4,5-d]pyrimidin-3(2H)-yl)-2,4-difluorophenyl)naphthalene-1-sulfonamide]: the IC50 is 0.1 to 0.3 µM.
The result for `COc1ncc(Cl)cc1S(=O)(=O)Nc1ccc(F)c(-n2cc(Br)c3nc(N)ncc3c2=O)c1F` [Example 33, N-(3-(2-amino-8-bromo-5-oxopirido[4,3-d]pyrimidin-6(5H)-yl)-2,4-difluorophenyl)-5-chloro-2-methoxypyridine-3-sulfonamide] reads above 1 µM; that for `CN1CN(c2c(F)ccc(NS(=O)(=O)c3cccc4ccccc34)c2F)C(=O)c2cnc(N)nc21` [Example 41, N-(3-(7-amino-1-methyl-4-oxo-1,4-dihydropyrimido[4,5-d]pyrimidin-3(2H)-yl)-2,4-difluorophenyl)naphthalene-1-sulfonamide], 0.1 to 0.3 µM; that for `Nc1ncc2c(=O)n(-c3c(F)ccc(NS(=O)(=O)c4cc(Cl)ccc4Cl)c3F)ccc2n1` [Example 24, N-(3-(2-amino-5-oxopirido[4,3-d]pyrimidin-6(5H)-yl)-2,4-difluorophenyl)-2,5-dichlorobenzenesulfonamide], below 0.1 µM.
For `CN1CN(c2c(F)ccc(NS(=O)(=O)c3cc(Cl)ccc3Cl)c2F)C(=O)c2cnc(N)nc21` [Example 39, N-(3-(7-amino-1-methyl-4-oxo-1,4-dihydropyrimido[4,5-d]pyrimidin-3(2H)-yl)-2,4-difluorophenyl)-2,5-dichlorobenzenesulfonamide], the IC50 lay within 0.1 to 0.3 µM.
With `CN1C(=O)Cc2cc(S(=O)(=O)Nc3ccc(F)c(-n4c(=O)c5cnc(N)nc5n(C)c4=O)c3F)ccc21` [Example 53, N-(3-(7-amino-1-methyl-2,4-dioxo-1,4-dihydropyrimido[4,5-d]pyrimidin-3(2H)-yl)-2,4-difluorophenyl)-1-methyl-2-oxoindoline-5-sulfonamide] the figure was above 1 µM; with `Cn1c(=O)n(-c2c(F)ccc(NS(=O)(=O)c3ccc(Cl)cc3Cl)c2F)c(=O)c2cnc(N)nc21` [Example 55, N-(3-(7-amino-1-methyl-2,4-dioxo-1,2-dihydropyrimido[4,5-d]pyrimidin-3(4H)-yl)-2,4-difluorophenyl)-2,4-dichlorobenzenesulfonamide], 0.1 to 0.3 µM; with `CNc1ncc2c(=O)n(-c3c(F)ccc(NS(=O)(=O)c4cc(Cl)cnc4OC)c3F)c(=O)n(C)c2n1` [Example 58, 5-chloro-N-(2,4-difluoro-3-(1-methyl-7-(methylamino)-2,4-dioxo-1,4-dihydropyrimido[4,5-d]pyrimidin-3(2H)-yl)phenyl)-2-methoxypyridine-3-sulfonamide], 0.1 to 0.3 µM.
The result for `Cc1nn(-c2c(F)ccc(NS(=O)(=O)c3cc(Cl)ccc3Cl)c2F)c(=O)c2cnc(N)nc12` [Example 34, N-(3-(2-amino-8-methyl-5-oxopyrimido[4,5-d]pyridazine-6(5H)-yl)-2,4-difluorophenyl)-2,5-dichlorobenzenesulfonamide] reads below 0.1 µM.
The result for `Cc1nn(C)c(Cl)c1S(=O)(=O)Nc1ccc(F)c(-n2ccc3nc(N)ncc3c2=O)c1F` [Example 30, N-(3-(2-amino-5-oxopirido[4,3-d]pyrimidin-6(5H)-yl)-2,4-difluorophenyl)-5-chloro-1,3-dimethyl-1H-pyrazole-4-sulfonamide] reads 0.1 to 0.3 µM; that for `COc1ncc(C#N)cc1S(=O)(=O)Nc1ccc(F)c(-n2c(=O)c3cnc(N)nc3n(C)c2=O)c1F` [Example 47, N-(3-(7-amino-1-methyl-2,4-dioxo-1,4-dihydropyrimido[4,5-d]pyrimidin-3(2H)-yl)-2,4-difluorophenyl)-5-cyano-2-methoxypyridine-3-sulfonamide], below 0.1 µM.
Turning to `COc1ncc(Cl)cc1S(=O)(=O)Nc1ccc(F)c(N2CN(C3CC3)c3nc(N)ncc3C2=O)c1F` [Example 60, N-(3-(7-amino-1-cyclopropyl-4-oxo-1,4-dihydropyrimido[4,5-d]pyrimidin-3(2H)-yl)-2,4-difluorophenyl)-5-chloro-2-methoxypyridine-3-sulfonamide], the IC50 lay in the range of 0.1 to 0.3 µM.
For the molecule `Cn1c(=O)n(-c2c(F)ccc(NS(=O)(=O)c3cc(Cl)ccc3Cl)c2F)c(=O)c2cnc(N)nc21` [Example 42, N-(3-(7-amino-1-methyl-2,4-dioxo-1,4-dihydropyrimido[4,5-d]pyrimidin-3(2H)-yl)-2,4-difluorophenyl)-2,5-dichlorobenzenesulfonamide], the IC50 lay within 0.1 to 0.3 µM.
The result for `Cn1c(=O)n(-c2c(F)ccc(NS(=O)(=O)c3cc(F)ccc3F)c2F)c(=O)c2cnc(N)nc21` [Example 54, N-(3-(7-amino-1-methyl-2,4-dioxo-1,4-dihydropyrimido[4,5-d]pyrimidin-3(2H)-yl)-2,4-difluorophenyl)-2,5-difluorobenzenesulfonamide] reads 0.1 to 0.3 µM; that for `Cn1c(=O)n(-c2c(F)ccc(NS(=O)(=O)c3cc(C(F)(F)F)ccc3Cl)c2F)c(=O)c2cnc(N)nc21` [Example 49, N-(3-(7-amino-1-methyl-2,4-dioxo-1,2-dihydropyrimido[4,5-d]pyrimidin-3(4H)-yl)-2,4-difluorophenyl)-2-chloro-5-(trifluoromethyl)benzenesulfonamide], 0.1 to 0.3 µM.
With `Nc1ncc2c(=O)n(-c3c(F)ccc(NS(=O)(=O)c4ccc(Cl)s4)c3F)ccc2n1` [Example 31, N-(3-(2-amino-5-oxopirido[4,3-d]pyrimidin-6(5H)-yl)-2,4-difluorophenyl)-5-chlorothiophene-2-sulfonamide] the figure was 0.1 to 0.3 µM; with `Cc1nn(-c2c(F)ccc(NS(=O)(=O)c3cn(C)nc3C(F)(F)F)c2F)c(=O)c2cnc(N)nc12` [Example 35, N-(3-(2-amino-8-methyl-5-oxopyrimido[4,5-d]pyridazine-6(5H)-yl)-2,4-difluorophenyl)-1-methyl-3-(trifluoromethyl)-1H-pyrazole-4-sulfonamide], above 1 µM.
On to `Cn1cc(S(=O)(=O)Nc2ccc(F)c(-n3c(=O)c4cnc(N)nc4n(C)c3=O)c2F)cn1` [Example 56, N-(3-(7-amino-1-methyl-2,4-dioxo-1,4-dihydropyrimido[4,5-d]pyrimidin-3(2H)-yl)-2,4-difluorophenyl)-1-methyl-1H-pyrazole-4-sulfonamide], for which the IC50 was above 1 µM.
`Cn1c(=O)n(-c2c(F)ccc(NS(=O)(=O)c3ccc(Cl)s3)c2F)c(=O)c2cnc(N)nc21` [Example 50, N-(3-(7-amino-1-methyl-2,4-dioxo-1,4-dihydropyrimido[4,5-d]pyrimidin-3(2H)-yl)-2,4-difluorophenyl)-5-chlorothiophene-2-sulfonamide]: the half-inhibitory concentration (IC50) is below 0.1 µM.
For the molecule `Cc1nn(C)c(Cl)c1S(=O)(=O)Nc1ccc(F)c(-n2c(=O)c3cnc(N)nc3n(C3CC3)c2=O)c1F` [Example 66, N-(3-(7-amino-1-cyclopropyl-2,4-dioxo-1,4-dihydropyrimido[4,5-d]pyrimidin-3(2H)-yl)-2,4-difluorophenyl)-5-chloro-1,3-dimethyl-1H-pyrazole-4-sulfonamide], the IC50 is 0.3 to 1 µM.
The result for `Cc1nn(-c2c(F)ccc(NS(=O)(=O)c3cc(Cl)cc(CO)c3Cl)c2F)c(=O)c2cnc(N)nc12` [Example 37, N-(3-(2-amino-8-methyl-5-oxopyrimido[4,5-d]pyridazine-6(5H)-yl)-2,4-difluorophenyl)-2,5-dichloro-3-(hydroxymethyl)benzene sulfonamide] reads above 1 µM; that for `Cc1nn(C)c(Cl)c1S(=O)(=O)Nc1ccc(F)c(N2CN(C3CC3)c3nc(N)ncc3C2=O)c1F` [Example 62, N-(3-(7-amino-1-cyclopropyl-4-oxo-1,4-dihydropyrimido[4,5-d]pyrimidin-3(2H)-yl)-2,4-difluorophenyl)-5-chloro-1,3-dimethyl-1H-pyrazole-4-sulfonamide], above 1 µM; that for `COc1ncc(Cl)cc1S(=O)(=O)Nc1ccc(F)c(-n2cc(C)c3nc(N)ncc3c2=O)c1F` [Example 21, N-(3-(2-amino-8-methyl-5-oxopirido[4,3-d]pyrimidin-6(5H)-yl)-2,4-difluorophenyl)-5-chloro-2-methoxypyridine-3-sulfonamide], below 0.1 µM.
As to `COc1ncc(Cl)cc1S(=O)(=O)Nc1ccc(F)c(N2CN(C)c3nc(N)ncc3C2=O)c1F` [Example 40, N-(3-(7-amino-1-methyl-4-oxo-1,4-dihydropyrimido[4,5-d]pyrimidin-3(2H)-yl)-2,4-difluorophenyl)-5-chloro-2-methoxypyridine-3-sulfonamide], the IC50 lay in the range of 0.1 to 0.3 µM.

These data come from patent US20260184706A1, “PHENYLSULFONAMIDE DERIVATIVES, PREPARATION METHOD THEREFOR, AND PHARMACEUTICAL COMPOSITION FOR PREVENTION OR TREATMENT OF CANCER CONTAINING SAME AS ACTIVE INGREDIENT” (Korea Research Institute of Chemical Technology, priority 2022, published 2026).
